Among the test systems are EKVX NSCLC; M14 melanoma; PC-3 prostate; UACC-62 melanoma; SF-268 CNS; SR leukemia; KM12 colon; NCI-H226 lung; SNB-19 CNS; UO-31 renal.
Holding throughout (assay): NCI-60 cell line screen, 48 h

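Grown in 96-well plates, cells were treated for 48 hours with each compound at five concentrations. Insufficient inhibition: endpoint recorded as highest concentration tested. At the GI50, growth is halved. TGI is the concentration that stops growth completely.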

Regarding `COC(=O)[C@H](Cc1c[nH]c2ccccc12)NC(=O)[C@@H](OC)[C@@H]1Cc2cc3cc(OC4CC(OC5CC(O)C(O)C(C)O5)C(O)C(C)O4)c(C)c(O)c3c(O)c2C(=O)[C@H]1OC1CC(OC2CC(OC3CC(C)(O)C(O)C(C)O3)C(O)C(C)O2)C(O)C(C)O1` (some centres undefined), the GI50 with EKVX NSCLC is 12.5 nM; in the experiment with M14 melanoma, 16.9 nM; in the experiment with PC-3 prostate, 8.8 nM; with UACC-62 melanoma, 3.61 nM; in the experiment with SF-268 CNS it was 8.91 nM; in the experiment on SR leukemia, 3.76 nM. Further, the GI50 in the experiment on KM12 colon is 5.58 nM; with NCI-H226 lung it was 6.5 nM; with SNB-19 CNS it was 7.77 nM; with UO-31 renal, 215 nM. Moreover, the TGI with EKVX NSCLC was 3000 nM; in the experiment on M14 melanoma, 127 nM; in the experiment on PC-3 prostate, 412 nM; with UACC-62 melanoma, 9.83 nM; in the experiment with SF-268 CNS it was 1780 nM; in the experiment with SR leukemia it was more than 8990 nM. For the same molecule, the TGI in the experiment on KM12 colon was 1050 nM; in the experiment on NCI-H226 lung, 145 nM; in the experiment with SNB-19 CNS it was more than 16500 nM; in the experiment with UO-31 renal it was 1180 nM.
For `COc1cc(NS(=O)(=O)c2ccc(-c3cnc(C4CC4)o3)cc2)ccc1F`, the GI50 in the experiment with EKVX NSCLC is 1130 nM; in the experiment with M14 melanoma, 269 nM; in the experiment with PC-3 prostate, 329 nM; in the experiment with UACC-62 melanoma, 313 nM; in the experiment with SF-268 CNS, 2650 nM; in the experiment with SR leukemia it was 102 nM. Also, the GI50 in the experiment with KM12 colon was 277 nM; in the experiment on NCI-H226 lung it was 1240 nM; in the experiment with SNB-19 CNS, 441 nM; in the experiment on UO-31 renal, 581 nM. Besides, the TGI in the experiment with EKVX NSCLC is 95500 nM; in the experiment with M14 melanoma, 14800 nM; in the experiment on PC-3 prostate it was 17000 nM; in the experiment with UACC-62 melanoma, 13800 nM; in the experiment on SF-268 CNS it was 30700 nM; in the experiment on SR leukemia, more than 100000 nM. In addition, the TGI with KM12 colon worked out at 18100 nM; in the experiment with NCI-H226 lung, 22100 nM; with SNB-19 CNS, 24500 nM; with UO-31 renal, 24100 nM.
As for `COc1cc2c3c(n(C)c(=O)c2cc1OC)-c1cc2c(cc1/C3=C\CNCCCN)OCO2`, the GI50 was 2850 nM with EKVX NSCLC; 585 nM with M14 melanoma; 272 nM in the experiment with PC-3 prostate; 214 nM in the experiment with UACC-62 melanoma; 762 nM in the experiment on SF-268 CNS; 20.3 nM in the experiment with SR leukemia. The GI50 is 359 nM with KM12 colon, 75.3 nM with NCI-H226 lung, 261 nM in the experiment with SNB-19 CNS and 6960 nM in the experiment on UO-31 renal. Further, the TGI with EKVX NSCLC was determined as 12200 nM; in the experiment on M14 melanoma it was 5310 nM; with PC-3 prostate, 3160 nM; in the experiment on UACC-62 melanoma, 1120 nM; with SF-268 CNS, 10800 nM; in the experiment on SR leukemia, 618 nM. In addition, the TGI is 3930 nM in the experiment with KM12 colon, 797 nM in the experiment with NCI-H226 lung, 10400 nM in the experiment with SNB-19 CNS and more than 100000 nM in the experiment on UO-31 renal.
For the molecule `CCC(=O)c1c(C(F)(F)F)n([O-])c2ccc(C)cc2[n+]1=O`, the GI50 was 1520 nM in the experiment on EKVX NSCLC; 15300 nM in the experiment with M14 melanoma; 2270 nM with PC-3 prostate; 7700 nM in the experiment on UACC-62 melanoma; more than 50000 nM in the experiment on SF-268 CNS; 675 nM with SR leukemia. Further, the GI50 with KM12 colon was 4990 nM; in the experiment with NCI-H226 lung it was 10800 nM; with SNB-19 CNS it was 15200 nM; with UO-31 renal, 1480 nM. Moreover, the TGI in the experiment with EKVX NSCLC was 6090 nM; in the experiment with M14 melanoma, more than 50000 nM; in the experiment with PC-3 prostate, 15100 nM; in the experiment on UACC-62 melanoma, 28900 nM; in the experiment with SF-268 CNS, more than 50000 nM; with SR leukemia it was more than 50000 nM. Moreover, the TGI in the experiment with KM12 colon was 14900 nM; in the experiment with NCI-H226 lung, more than 50000 nM; in the experiment on SNB-19 CNS, more than 50000 nM; in the experiment with UO-31 renal, more than 50000 nM.
As to `COc1ccccc1Cn1cc2c(c1-c1ccccc1)CCc1cnoc1-2`, the GI50 with EKVX NSCLC was 2760 nM; in the experiment on M14 melanoma, 2060 nM; in the experiment with PC-3 prostate, 3750 nM; in the experiment on UACC-62 melanoma, 2340 nM; with SF-268 CNS, 8340 nM; with SR leukemia, 491 nM. In addition, the GI50 in the experiment on KM12 colon is 1760 nM; in the experiment with NCI-H226 lung, 8520 nM; with SNB-19 CNS it was 5400 nM; in the experiment on UO-31 renal, 3460 nM. Also, the TGI with EKVX NSCLC was more than 100000 nM; in the experiment on M14 melanoma it was 17300 nM; in the experiment on PC-3 prostate, more than 100000 nM; in the experiment on UACC-62 melanoma it was more than 100000 nM; in the experiment on SF-268 CNS, more than 100000 nM; in the experiment with SR leukemia, 56500 nM. Also, the TGI was more than 100000 nM in the experiment with KM12 colon, more than 100000 nM in the experiment on NCI-H226 lung, more than 100000 nM with SNB-19 CNS and 78600 nM with UO-31 renal.
As for `CCc1oc2ccccc2c1C(=O)c1cc(I)c(O)c(I)c1`, the GI50 in the experiment with EKVX NSCLC is 3590 nM; in the experiment with M14 melanoma it was 1240 nM; in the experiment on PC-3 prostate, 3750 nM; with UACC-62 melanoma it was 3320 nM; in the experiment on SF-268 CNS, 2890 nM; in the experiment with SR leukemia, 568 nM. Also, the GI50 with KM12 colon is 1620 nM; in the experiment on NCI-H226 lung, 10600 nM; in the experiment with SNB-19 CNS it was 5190 nM; in the experiment on UO-31 renal, 1820 nM. The TGI in the experiment with EKVX NSCLC is 15400 nM; in the experiment with M14 melanoma, 5300 nM; with PC-3 prostate it was 19500 nM; in the experiment with UACC-62 melanoma it was 16800 nM; in the experiment on SF-268 CNS it was 15200 nM; in the experiment with SR leukemia it was 17900 nM. The TGI turned out to be 13000 nM in the experiment with KM12 colon, 27000 nM in the experiment with NCI-H226 lung, 18900 nM in the experiment with SNB-19 CNS and 10500 nM in the experiment on UO-31 renal.
Turning to `COc1cc2c3c(n(CCCCOC(=O)C(Cl)(Cl)Cl)c(=O)c2cc1OC)-c1cc2c(cc1C3=O)OCO2`, the GI50 in the experiment on EKVX NSCLC was more than 100000 nM; in the experiment on M14 melanoma it was 24300 nM; in the experiment on PC-3 prostate it was more than 100000 nM; in the experiment with UACC-62 melanoma, 22500 nM; in the experiment with SF-268 CNS, 30000 nM; with SR leukemia, 1140 nM. The GI50 was more than 100000 nM in the experiment on KM12 colon, 67600 nM in the experiment on NCI-H226 lung, more than 100000 nM with SNB-19 CNS and 14100 nM with UO-31 renal. Besides, the TGI in the experiment with EKVX NSCLC is more than 100000 nM; in the experiment on M14 melanoma, 71900 nM; in the experiment with PC-3 prostate it was more than 100000 nM; with UACC-62 melanoma, more than 100000 nM; with SF-268 CNS, more than 100000 nM; in the experiment with SR leukemia, 15000 nM. In addition, the TGI in the experiment on KM12 colon, in the experiment on NCI-H226 lung, with SNB-19 CNS and in the experiment on UO-31 renal was more than 100000 nM throughout.
As for `Cn1cnc([N+](=O)[O-])c1[Se]c1nc(N)nc2c1ncn2C1OC(CO)C(O)C1O` (centres undefined), the TGI in the experiment on EKVX NSCLC, in the experiment with M14 melanoma, with PC-3 prostate, in the experiment on UACC-62 melanoma, with SF-268 CNS and with SR leukemia was more than 100000 nM throughout. In addition, the TGI with KM12 colon, with NCI-H226 lung, in the experiment with SNB-19 CNS and in the experiment with UO-31 renal was more than 100000 nM in each case.
In the case of `CCOC(=O)c1c(C)nc2c(c1N)/C(=C/c1ccc(OC)cc1)C(=O)N2Cc1ccc(F)cc1`, the GI50 in the experiment on EKVX NSCLC is 270 nM; with M14 melanoma it was 191 nM; in the experiment with PC-3 prostate, 277 nM; in the experiment on UACC-62 melanoma it was 160 nM; in the experiment on SF-268 CNS it was 285 nM; with SR leukemia, 81.6 nM. Also, the GI50 with KM12 colon was 243 nM; in the experiment with NCI-H226 lung, 261 nM; in the experiment with SNB-19 CNS, 532 nM; in the experiment with UO-31 renal, 132 nM. Besides, the TGI with EKVX NSCLC stood at 2260 nM; in the experiment with M14 melanoma, 443 nM; in the experiment with PC-3 prostate it was 1000 nM; in the experiment on UACC-62 melanoma, 317 nM; in the experiment on SF-268 CNS, 1210 nM; with SR leukemia, 726 nM. Further, the TGI was determined as 844 nM with KM12 colon, 1030 nM in the experiment with NCI-H226 lung, 1870 nM in the experiment with SNB-19 CNS and 301 nM in the experiment with UO-31 renal.
As to `COC(=O)c1c(C)[nH]c(/C=C2\N=C(c3ccc[nH]3)C=C2OC)c1C`, the GI50 was 1070 nM in the experiment on EKVX NSCLC; 209 nM in the experiment on M14 melanoma; 349 nM with PC-3 prostate; 287 nM in the experiment on UACC-62 melanoma; 260 nM in the experiment with SF-268 CNS; 94.7 nM with SR leukemia. Further, the GI50 in the experiment with KM12 colon is 93.8 nM; in the experiment with NCI-H226 lung, 1660 nM; in the experiment on SNB-19 CNS it was 1870 nM; in the experiment on UO-31 renal it was 113 nM. The TGI is 3280 nM in the experiment on EKVX NSCLC; 619 nM in the experiment with M14 melanoma; more than 100000 nM in the experiment on PC-3 prostate; 921 nM in the experiment on UACC-62 melanoma; more than 100000 nM with SF-268 CNS; 679 nM in the experiment with SR leukemia. The TGI with KM12 colon is 5670 nM; in the experiment with NCI-H226 lung it was 7920 nM; in the experiment on SNB-19 CNS, more than 100000 nM; in the experiment on UO-31 renal, 280 nM.
Take `COC(=O)C12C3C4C1C1C2C3C41NC(=O)c1csc([C@@H](C[C@H](C(C)C)N(C)C(=O)[C@@H](NC(=O)[C@H]2CCCCN2C)C2CC2)OC(C)=O)n1` (some centres undefined): the GI50 with EKVX NSCLC is 80 nM; in the experiment with M14 melanoma, 25.3 nM; in the experiment on PC-3 prostate it was 48.2 nM; in the experiment with UACC-62 melanoma it was 5.95 nM; in the experiment on SF-268 CNS, 35.6 nM; with SR leukemia, less than 3.33 nM. For the same molecule, the GI50 in the experiment with KM12 colon was 8.18 nM; in the experiment on NCI-H226 lung, 395 nM; in the experiment on SNB-19 CNS it was 77 nM; in the experiment on UO-31 renal, 350 nM. Besides, the TGI with EKVX NSCLC, with PC-3 prostate, in the experiment with UACC-62 melanoma, in the experiment on SF-268 CNS, in the experiment with SR leukemia and in the experiment with KM12 colon was more than 33300 nM each time. For the same molecule, the TGI in the experiment on NCI-H226 lung, in the experiment with SNB-19 CNS and with UO-31 renal was more than 33300 nM throughout.

Values taken from PubChem BioAssay (NCI).
